Laboratory results as given in US11278525B1, “Further molecules, compositions and methods for modulation of SIRT6” (SirTLab Corporation, priority 2017, dated 2022).

Biological target: SIRT6 (Homo sapiens, UniProt Q8N6T7)
Assay: SIRT6 enzymatic activity assay with fluorophore (AMC)-labeled Lysin-myristoylated histone H3 peptide (de-myristoylation, trypsin release)
Assay type: biochemical
Set-up: six-histidine tag; made in house; host or cells: Escherichia coli BL21
Details: for % activity 20 uM: compound 20 uM; for % activity 20 uM / % activity Max. conc. 100 uM: percentage of signal increase relative to control wells, Tables 1-2; for % activity Max. conc. 100 uM: compound 100 uM; for % Activity: amount tested 20 uM, Example 5, Table 9
Method: Human recombinant SIRT6 (sequence identifier: CAG33481.1; GI:4814651) was expressed in large scale in Escherichia coli strain BL21 as a six-histidine-tagged protein, after transformation of the expression plasmid pET28-SIRT6. The SIRT6 enzyme was purified from the bacteria culture broth in a two-step strategy. The first purification step was carried out by cation exchange chromatography on a HiTrap CM-Sepharose column (GE Healthcare) using an FPLC system. The second purification step was performed by immobilized metal ion affinity chromatography (IMAC) using a cobalt affinity column (Clontech).
The enzymatic activity assay is carried out in 96 or 384-well microplates using the purified recombinant SIRT6 and a fluorophore-labeled peptide substrate: 7-amino-4-methylcoumarin (AMC) that is quenched through conjugation to the C-terminal end of a Lysin-myristoylated histone H3 peptide. The activity assay procedure requires two steps, both performed in the same microplate. In the first step, the substrate is incubated with the purified SIRT6 protein along with the co-substrate nicotinamide adenine dinucleotide (NAD+). Upon de-myristoylation, the liberated ε-amino group of the lysine becomes a trypsin substrate. Treatment with trypsin in the second step releases the fluorophore resulting in an increase in fluorescence. Fluorescence intensity is measured using a fluorescent plate reader (excitation and emission at 370 nm and 450 nm, respectively). The fluorescence signal is directly proportional to SIRT6 enzymatic activity.
In the primary screening, compounds from a library (ChemDiv Inc.) were tested at a single concentration of 20 micromolar for their potential to modulate SIRT6 enzymatic activity. The assay was carried out in 384-well black well plates and all liquid handling was done using a robotic liquid handler. Purified recombinant SIRT6 (1 micromolar) was pre-incubated with each compound (or DMSO in control wells) for 15 minutes at room temperature. The first stage of the assay was initiated by adding a ‘substrate solution’ containing the myristoylated histone H3 peptide and NAD+(for final concentrations of 25 micromolar and 20 micromolar, respectively). After one hour incubation at 37° C., a Trypsin solution (6 mg/mL) was added for 30 minutes at room temperature. Fluorescence intensity was measured using a fluorescent plate reader (Tecan) with excitation at 370 nm and emission at 450 nm. The effect of each tested compound was evaluated by the change in the fluorescence intensity compared to control wells. […] To validate the primary screening results, each of the primary “hits” was re-tested, first at concentration of 20 micromolar in duplicates and later at a serial dilution ranging from 100 to 0.2 micromolar in triplicates.
Results of Assay—The results of the assay are given below in Tables 1-3.
Additional molecules were tested according to the methods and materials of Example 1. The amount tested was 20 uM for each molecule.

Chain of SIRT6 (Q8N6T7 whole entry): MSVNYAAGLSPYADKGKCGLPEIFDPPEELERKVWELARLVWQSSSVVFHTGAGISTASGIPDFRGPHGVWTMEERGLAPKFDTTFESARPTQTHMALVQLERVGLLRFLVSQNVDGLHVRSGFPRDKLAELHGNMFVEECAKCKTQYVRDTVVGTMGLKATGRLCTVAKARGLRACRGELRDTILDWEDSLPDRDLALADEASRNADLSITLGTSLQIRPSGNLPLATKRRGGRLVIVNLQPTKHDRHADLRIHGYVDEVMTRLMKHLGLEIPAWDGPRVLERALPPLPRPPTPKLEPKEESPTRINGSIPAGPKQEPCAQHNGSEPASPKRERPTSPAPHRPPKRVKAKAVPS

Structure (SMILES) | % activity 20 uM [%] | % activity Max. conc. 100 uM [%] | % Activity [%]
C=C(Nc1cc(C)cc(C)c1)Nc1nnc(SCC2=CC(=C)N3C=C(C)C=CC3=N2)s1 [G755-0539] | 34 | 87 | –
Cc1cc(C)c2sc(N(Cc3cccnc3)C(=O)CCS(=O)(=O)c3ccccc3)nc2c1 [G856-7064] | – | – | 61
C=C(Oc1ccc2cnccc2c1)c1sc2ccccc2c1N [G891-0058] | 154 | 324 | –
CCOc1ccc(NC(=O)c2sc3nc(C)nc(N(C)c4ccc(C(C)C)cc4)c3c2C)cc1 [K937-0320] | 32 | 54 | –
CCCNc1nc2ccccc2nc1S(=O)(=O)Cc1ccc(Cl)cc1 [L103-0652] | 34 | 42 | –
CCOCCCNc1nc2ccccc2nc1S(=O)(=O)Cc1ccc(Cl)cc1 [L103-0696] | 91 | 159 | –
O=C(Nc1ccc2nncn2c1)c1cccc(Cl)c1 [M723-0069] | – | 51 | –
Cc1nc(Cc2ccc(F)cc2)sc1C(=O)Nc1ccc(F)cc1F [M830-6517] | 36 | 22 | –
Cc1ccc(Nc2nc(C)c(C(=O)Nc3cccc(C(C)C)c3)s2)cc1 [M830-6572] | – | 11 | –
Cc1ccccc1C1N=C2C=NC=CN2C1NCCC(=O)NCc1cccs1 (stereo not shown) [P349-2111] | – | – | 84
COc1cc(NC(=O)c2csc(-c3cn(C)c4ncccc34)n2)cc(OC)c1 [P613-0273] | – | 37 | –
CCCC1(CO)CCCN1C(=O)c1ccc2cc[nH]c2c1 (stereo not shown) [P933-1294] | – | 53 | –
Cc1noc(-c2cccc(OC3CN(C(=O)c4cccc5[nH]ccc45)C3)c2)n1 [S051-0094] | – | 47 | –
CCNC(=O)N1CCc2c(sc3ncnc(NCC)c23)C1 [S324-0342] | – | – | 30
CNC(=O)N1CCc2c(sc3ncnc(NCCCOC)c23)C1 [S324-0365] | – | – | 60
Cc1nc(-c2cccc(C(F)(F)F)c2)c(N)c(N(C)C2CCN(C)CC2)n1 [V030-4109] | – | 255 | –
Cc1nc(-c2cccc(F)c2)c(N)c(N(C)C2CCN(C)CC2)n1 [V030-4128] | – | 210 | –

Structure (SMILES) | % activity 20 uM [%] | % activity Max. conc. 100 uM [%] | % Activity [%]
CCOC(=O)CCc1c(C)c2ccc(OC(=O)C3CCCCC3)c(C)c2oc1=O [Y04-4165] | – | – | 529
COc1cccc(C(=O)Oc2ccc3c4c(c(=O)oc3c2C)CCCC4)c1 [Y040-0750] | – | – | 33
Cc1c(Cc2ccccc2)c(=O)oc2c(C)c(OC(=O)C3CC3)ccc12 [Y040-1980] | – | – | 30
COc1ccc(C(=O)Oc2ccc3c(C)c(Cc4ccccc4)c(=O)oc3c2)cc1 [Y040-2026] | – | – | 140
COc1cc(C(=O)Oc2ccc3c4c(c(=O)oc3c2)CCCC4)cc(OC)c1OC [Y040-2478] | – | – | 95
COC(=O)Cc1c(C)c2ccc(OC(=O)c3cccc(OC)c3)c(C)c2oc1=O [Y040-3572] | – | – | 396
CCOc1ccccc1C(=O)Oc1ccc2c(C)c(CC(=O)OC)c(=O)oc2c1C [Y040-3573] | – | – | 50
C=C1Cc2cc(C)cc(CC(=O)[C@@H](NS(=C)(=C)c3ccc(C)cc3)[C@H](C)CC)c2C2=C1CCC2 [Y040-3625] | – | 113 | –
CCOc1ccccc1C(=O)Oc1ccc2c3c(c(=O)oc2c1)CCCC3 [Y040-4190] | – | – | 168
Cc1ccc(C(=O)Oc2ccc3c4c(c(=O)oc3c2C)CCC4)cc1 [Y040-4193] | – | – | 53
CCCCCCc1c(C)c2ccc(OC(C)=O)c(C)c2oc1=O [Y040-4544] | – | – | 33
CCCCCCc1c(C)c2cc(C)c(OC(=O)c3cccc(OC)c3)cc2oc1=O [Y040-7591] | – | – | 63
Cc1c(Cc2ccccc2)c(=O)oc2c(C)c(OC(=O)c3ccccc3)ccc12 [Y040-7711] | – | – | 41
COc1ccc(C(=O)Oc2ccc3c(C)c(Cc4ccccc4)c(=O)oc3c2C)cc1 [Y040-7713] | – | – | 21
Cc1c(Cc2ccccc2)c(=O)oc2cc(OCc3c(Cl)cccc3Cl)ccc12 [Y040-7747] | – | – | 21
Cc1c(Cc2ccccc2)c(=O)oc2cc(OC(=O)c3ccccc3)ccc12 [Y040-7755] | – | – | 212
COc1ccc(C(=O)Oc2ccc3c4c(c(=O)oc3c2)CCCC4)cc1 [Y040-8182] | – | – | 485

More lines, now with the values ahead:

% activity 20 uM [%] | % activity Max. conc. 100 uM [%] | % Activity [%] | Structure (SMILES)
53 | 221 | – | C=C(Cn1c(C)cc(C)c(C2=NC(c3ccccc3)=NC2)c1=O)NC1CCCCC1 [G744-0080]
42 | 35 | – | C=C1Cc2c(cccc2CC)C=C1c1csc(NC(=O)CCC(=O)NCCCN2CCC(C)CC2)n1 [K232-1782]
52 | 52 | – | CCOC(=O)C1CCCN(S(=O)(=O)c2ccc(-c3ccc(N4CCOCC4)nn3)s2)C1 (stereo not shown) [K906-5001]
62 | 92 | – | CCC(=O)Nc1ccc(-c2cc(C(=O)NCCCN3CCCCCC3)c3ccccc3n2)cc1 [L036-0162]
– | 110 | – | CCC(=O)Nc1ccc(-c2cc(C(=O)NCCCN3CCCCC3C)c3ccccc3n2)cc1 (stereo not shown) [L036-0163]
61 | 87 | – | CCC(=O)Nc1ccc(-c2cc(C(=O)NCCCN3CCCC(C)C3)c3ccccc3n2)cc1 (stereo not shown) [L036-0174]
96 | 119 | – | CC(=O)Nc1ccc(-c2cc(C(=O)NCCN3CCN(C)CC3)c3cc(C)ccc3n2)cc1 [L036-2289]
51 | 56 | – | CC(C)Cn1c(=O)c(-c2ccc(C(=O)N3CCN(c4ccccc4)CC3)cc2)nc2ccccc21 [M049-1557]
63 | 50 | – | CCCNC(=O)c1ccc(-c2ccc(N3CCCCC3)nc2)cc1 [M715-0111]
40 | 54 | – | CN(C)C(=O)c1ccc(-c2ccc(N3CCCCC3)nc2)cc1 [M715-0112]
– | 75 | – | O=C(c1ccc(-c2ccc(N3CCCCC3)nc2)cc1)N1CCCC1 [M715-0156]
– | 87 | – | CC(C)(C)c1ccc(C(=O)Nc2ccc3nnc(C4CCC4)n3c2)cc1 [M723-1403]
– | 142 | – | O=C(Nc1ccc2nnc(C3CCC3)n2c1)C1CC1 [M723-1459]
– | 45 | – | N#Cc1cccc(-c2cn3c(n2)N(C(=O)c2ccncc2)CCC3)c1 [P950-0537]
– | – | 67 | CN1CCN(C(=O)C2CCN(c3nc4ccc(-c5ccccc5)nc4s3)CC2)CC1 [T387-0661]
– | – | 51 | CN(C)CCCNC(=O)C1CCN(c2nc3ccc(-c4ccccc4)nc3s2)CC1 [T387-0668]
– | – | 69 | CCN1CCN(C(=O)C2CCN(c3nc4ccc(-c5ccccc5)nc4s3)CC2)CC1 [T387-0670]
– | – | 22 | CN1CCC(NC(=O)C2CCN(c3nc4ccc(-c5ccccc5)nc4s3)CC2)CC1 [T387-0726]
– | – | 65 | COCCCNC(=O)C1CCN(c2nc3ccc(-c4cncnc4)nc3s2)CC1 [T387-0917]
– | – | 49 | CN(C)CCNC(=O)C1CCN(c2nc3ccc(-c4cncnc4)nc3s2)CC1 [T387-0941]
– | – | 40 | O=C(C1CCN(c2nc3ccc(-c4cncnc4)nc3s2)CC1)N1CCCC1 [T387-0947]
– | – | 80 | CN(C)C(=O)C1CCN(c2nc3ccc(-c4cncnc4)nc3s2)CC1 [T387-0950]
– | – | 31 | CN(C)CCNC(=O)C1CCN(c2nc3ccc(-c4cccnc4)nc3s2)CC1 [T387-1019]
– | – | 47 | CC1CCN(C(=O)C2CCN(c3nc4ccc(-c5ccncc5)nc4s3)CC2)CC1 [T387-1113]
– | – | 85 | CCN(CC)C(=O)C1CCN(C2=Nc3ccc(-c4ccncc4)nc3C2)CC1 [T387-1131]
– | 175 | – | C=C(C)C1Cc2cc(C(F)(F)F)ccc2N2CCCCC12 (stereo not shown) [V004-5575]
– | – | 71 | Cc1c(OC(=O)C2CCCCC2)ccc2c3c(c(=O)oc12)CCCC3 [Y040-0748]
– | – | 237 | Cc1c(C)c2ccc(OC(=O)C3CCCCC3)c(C)c2oc1=O [Y040-1862]
– | – | 145 | Cc1c(Cc2ccccc2)c(=O)oc2c(C)c(OC(=O)C3CCCCC3)ccc12 [Y040-7709]
– | – | 61 | Cc1c(Cc2ccccc2)c(=O)oc2cc(OC(=O)C3CCCCC3)ccc12 [Y040-7756]
